Experimental data from patent publication US10023615B2, “Efficient transport into white blood cells” (priority 2008, dated 2018).
“Also recorded” adds a separate entry of the source. Ends that are not written are not given here.

Columns and labels:
[1] = system: Aβ1-40 and Aβ1-42 levels; experiment: Aβ1-40 and Aβ1-42 ELISA in brain homogenate fractions and CSF of hAPP Tg mice; type: in vivo, mouse
Protocol: a) METHODS • i) Introduction • The study was designed to evaluate the efficacy of the test substance (XG-102, SEQ ID NO: 233) on behavioral, biochemical and histological markers using 5 months (±2 weeks) old female hAPP Tg mice. Therefore, mice were treated every two or three weeks up to 4 months and in the end of the treatment period behavior was evaluated in the Morris Water Maze. At sacrifice brain, CSF and blood were collected. Aβ40 and Aβ42 levels were determined in four different brain homogenate fractions as well as in CSF of Tg mice. Plaque load was quantified in the cortex and the hippocampus of 8 Tg animals per treatment group.
iv) Treatment • […] female hAPP transgenic mice were treated with either 0.1 mg/kg b.w./every two weeks or 10 mg/kg b.w./every three weeks of the test substance XG-102 (SEQ ID NO: 233) in two different dosages (n=12/group) or treated with the vehicle (n=12) s.c. once every three weeks over four months.
vi) Tissue Sampling • At the end of the treatment period, and following all behavioral testing, all remaining mice (n=28) were sacrificed. Therefore, all mice were sedated by standard inhalation anesthesia (Isofluran, Baxter) as described in SOP MET030. Cerebrospinal fluid (CSF) was obtained by blunt dissection and exposure of the foramen magnum. Upon exposure, a Pasteur pipette was inserted to the approximate depth of 0.3-1 mm into the foramen magnum. CSF was collected by suctioning and capillary action until flow fully ceases. Two aliquots of each sample were immediately frozen and kept at −80° C. until ready for further analysis with ELISA technique. After CSF sampling, each mouse was placed in dorsal recumbence, thorax was opened and a 26-gauge needle attached to a 1 cc syringe was inserted into the right cardiac ventricular chamber. Light suction was applied to the needle and blood was collected into EDTA and consequently used to obtain plasma. […]
vii) Determination of Aβ1-40 and Aβ1-42 • In four different brain homogenate fractions of each Tg mouse as well as in CSF samples the Aβ1-40 and Aβ1-42 levels were evaluated with ELISA technique. […]

[2] = system: TC-3 cells; experiment: Inhibition of IL-1 induced pancreatic beta-cell death; type: cell-based; conditions: 1 μM single addition, IL-1 10 ng/ml, two days
Protocol: Inhibition of IL-1 induced pancreatic beta-cell death by the D-TAT-IB1(s) peptide was analyzed. TC-3 cells were incubated for 30 minutes with one single addition of the indicated peptides (1, μM), then IL-1 (10 ng/ml) was added.
Apoptotic cells were then counted after two days of incubation with IL-1 by use of Propidium Iodide and Hoechst 33342 nuclear staining. A minimum of 1,000 cells were counted for each experiment.
Long term inhibition of IL-1P induced cell-death by the D-TAT-IB1 peptide was also analyzed. TC-3 cells were incubated for 30 minutes with one single addition of the indicated peptides (1 μM), then IL-1 (10 ng/ml) was added, followed by addition of the cytokine every two days. Apoptotic cells were then counted after 15 days of incubation with IL-1 by use of propidium iodide and Hoechst 33342 nuclear staining. […] A minimum of 1.000 cells were counted for each experiment.

[3] = Tissue distribution of C14 radiolabeled D-TAT-tagged peptides; type: in vivo, mouse; conditions: 1 mg/kg s.c., i.v., i.p.; 72 hours after injection
Protocol: Mice were treated via three different routes of administration (s.c., i.v., i.p.) with radiolabeled peptides with C^14 (1 mg/kg). Animals were sacrificed 72 hours after injection and processed for immunoradiography. […] This illustrates that the transporter D-TAT is responsible for the tissue distribution.

dqsrpvqpflnIttprkprpprrrqrrkkrg (DQSRPVQPFLNLTTPRKPRPPRRRQRRKKRG; not fully specified (some residues); printed as dqsrpvqpflnIttprkprpprrrqrrkkrg) [XG-102]
Aβ1-42 levels in Triton X-100 fraction ([1]; 0.1 mg/kg): a significant reduction compared to the vehicle group; also recorded: a decrease in the Triton X-100 fraction
CSF Aβ1-40 and Aβ1-42 levels ([1]; 0.1 and 10 mg/kg): significantly decreased in CSF compared to vehicle group
brain homogenate Aβ1-40 levels ([1]; four brain homogenate fractions): did not affect brain homogenate Aβ1-40 levels
IL-1 induced apoptosis [2]: decreased IL-1 induced apoptosis to a similar extent as L-TAT-IB peptides
tissue distribution (accumulation) [3]: in the liver, spleen, and bone marrow predominantly
